Test results as given in US7326540B2, “Methods for identifying compounds that modulate stabilization of secretase-associated proteins” (priority 2003, dated 2008).

Experiments:
[1] = system: E-cadherin; assay: E-cadherin proteolysis in A431 cells during STS-induced apoptosis (Western blot, C36 antibody); format: cell-based, human; settings: then STS 6 hours
Procedure: FIG. 11 provides digitized images and graphs showing that apoptosis enhances γ-secretase activity and levels of γ-secretase complex proteins. FIG. 11a: Apoptosis was induced in CAB, CHO-CC99/PS1 and CHO-APP 751/PS1 by STS treatment for 6 hours with or without zVAD (100 μM). Secreted Aβ1−total was measured by ELISA. […] Each bar represents the mean and SD of quadruplicate determinations. FIG. 11b: Western blot analysis with the antibody, A8717, detected endogenous APP-FL and overexpressed C99 in CHO-CC99/PS1cells, while overexpressed APP-FL and C83 were detected in CHO-APP751/PS1 cells. FIG. 11c: A431 human epithelial cells were pre-incubated for 30 min in the absence (−) or presence (+) of zVAD-FMK (100 μM), L-685,458 (0.5 μM) or GM6001 (2.5 μM). Cells were then treated with STS for 6 hours to induce apoptosis, and cell extracts were probed with anti-E-cadherin C36 antibody. FIG. 11d: Protein levels of γ-secretase complex components were monitored by Western blotting employing the anti-nicastrin, Ab14, PNT2, H2D2 antibodies. Densitometry analysis was performed using NIH image software. Each bar represents the mean and SEM of at least three experiments. FIG. 11e: Nicastrin was transiently transfected in the A431 cells. Western blot analysis for E-cadherin and γ-secretase complex component was performed as in FIG. 11c and FIG. 11d β-tubulin was used as loading control.
To confirm that apoptosis/caspase activation increases γ-secretase activity, we next examined the proteolysis of E-cadherin, another γ-secretase substrate (Marambaud, P. et al., Embo J21, 1948-56 (2002)) during apoptosis. We confirmed that caspase activation enhanced the production of E-Cad/CTF1 (Steinhusen, U. et al., J Biol Chem 276, 4972-80 (2001)), E-Cad/CTF2 (Marambaud, P. et al., 2002) (˜2- and 3-fold increase by densitometry analysis, respectively), and generated E-Cad/CTF3 (Marambaud, P. et al., 2002) (FIG. 11c). […]

[2] = system: proteasome; assay: Proteasome inhibition: BACE and nicastrin protein levels by Western blot in H4 cells; format: cell-based, human
Procedure: Densitometric analysis was performed with NIH image and reported in bar graphs (FIG. 8B).

[3] = system: BACE; assay: BACE protein levels by Western blot and densitometry in CAB cells; format: cell-based, Chinese Hamster; settings: etoposide (ETO) treatment, CAB cells
Procedure: (§1) Chinese Hamster Ovary (CHO) cells expressing APP751 and BACE (CAB), CHO cells expressing full-length APP and wild-type PS1 (CHO-APP751/PS1) or expressing C99 and wild-type PS1 (CHO-CC99/PS1), H4 human neuroglioma cells expressing APP751 (H4-APP751), mouse embryonic fibroblast (MEF), embryonic stem (ES) cells, and human epithelial A431 cells were grown as described previously (Marambaud, P. et al., Embo J 21, 1948-56 (2002); Cai, H. et al., Nat Neurosci 4, 233-4 (2001); Sato, N. et al., Nat Cell Biol 2, 863-70 (2000); Puglielli, L., Ellis, B. C., Saunders, A. J. & Kovacs, D. M., J Biol Chem 278, 19777-83 (2003); Wolfe, M. S. et al., Nature 398, 513-7 (1999)). For the induction of apoptosis, we used staurosporine or etoposide (Calbiochem (EMD Biosciences, San Diego, Calif.)). For Aβ measurements, cells were seeded at the density of 0.5×10^6 cells per well in 6 well plates. After 48 hours, cells were treated with either STS (1 μM) for 6 hours. In order to inhibit caspase activation a sister plate of cells was pre-treated with zVAD (1001M, Enzyme Systems Products) for 1 hour before STS treatment. For time-course experiments, cells were seeded at the density of 2×10^6 cells per 100 mm dish and treated with STS (1 μM) or etoposide (100 μg/mL). At different time points (0, 3, 6, 9, 12 and 24 hours), the cells were scraped, centrifuged and then lysed in buffer containing 1% NP40. Western blot analysis was performed as previously described (Tesco, G., Koh, Y. H. & Tanzi, R. E., J Biol Chem 278, 46074-80 (2003)). Densitometry analysis was performed on a Macintosh computer using the public domain NIH Image program (developed at the U.S. National Institutes of Health and available on the Internet at http://rsb.info.nih.gov/nih-image/).
It has been previously shown that overexpression of BACE enhances β-secretase cleavage of APP leading to the accumulation of intracellular C99 (Vassar, R. et al., Science 286, 735-41 (1999)). We first asked whether apoptosis/caspase activation leads to accumulation of C99 owing to increased β-secretase activity.

[4] = system: Aβ production in CHO cells overexpressing APP751 and PS1 WT; assay: Secreted Aβ ELISA in CHO cells overexpressing APP751 and PS1 during induced apoptosis; format: cell-based, Chinese Hamster; settings: etoposide 100 μg/mL, 12 hrs
Procedure: We examined Aβ generation induced by apoptosis in CHO cell lines. We used CHO cell lines stably overexpressing both APP751 and PS1 WT. For the induction of apoptosis, we used 1 μM staurosporine (STS) in serum free media. Secreted Aβ was measured in the conditioned media of cells treated with STS for 6 hrs using a sensitive ELISA assay [courtesy of Dr. Dennis Selkoe; M. S. Wolfe et al., Nature 398, 513-7 (1999)].
Treatment with either STS for 6 hrs or etoposide for 12 hrs induced from 10 to 20% of cell death assayed by MTT assay, which is a colorimetric short-term suspension culture assay in which the yellow tetrazolium salt (MTT) is reduced in metabolically active cells to form insoluble purple formazan crystals, which are solubilized by the addition of a detergent.
as §1, with “In order to inhibit caspase activation a sister plate of cells was pre-treated with zVAD (1001M, Enzyme Systems Products) for 1 hour before STS treatment.” left out
Secreted Aβ1-total was measured in the conditioned media of untreated cells or of cells treated with STS or STS plus zVAD using a sensitive ELISA (Wolfe, M. S. et al., Nature 398, 513-7 (1999). At least three different experiments were carried out and each experiment was performed at least in triplicate.

CNC(=O)[C@H](Cc1c[nH]c2ccccc12)NC(=O)[C@@H](CC(=O)NO)CC(C)C [GM6001]
generation of E-Cad/CTF1 ([1]; GM6001 2.5 μM pre-incubated 30 min): inhibited

CC(C)C[C@H](NC(=O)[C@H](Cc1ccccc1)C[C@@H](O)[C@H](Cc1ccccc1)NC(=O)OC(C)(C)C)C(=O)N[C@@H](Cc1ccccc1)C(N)=O [L-685,458]
generation of E-Cad/CTF2 ([1]; L-685,458 0.5 μM pre-incubated 30 min): inhibited

CC(=O)N[C@@H](CSC(=O)[C@]1([C@@H](O)C(C)C)NC(=O)[C@H](C)[C@@H]1O)C(=O)O [Lactacystin, lactacystin]
protein levels of nicastrin ([2]; Lactacystin 10 μM for 24 hrs, medium containing 10% serum): increased | BACE full length and BACE-CTF levels ([2]; Lactacystin treatment, H4 cells): did not affect

COc1cc([C@@H]2c3cc4c(cc3[C@@H](O[C@@H]3O[C@@H]5CO[C@@H](C)O[C@H]5[C@H](O)[C@H]3O)[C@H]3COC(=O)[C@H]23)OCO4)cc(OC)c1O [etoposide]
BACE protein levels [3]: increase | Secreted Aβ1-42 [4]: increased | Secreted Aβtotal [4]: increased
